Source: patent US20180263985A1, “MODULATORS OF TOLL-LIKE RECEPTORS FOR THE TREATMENT OF HIV” (Gilead Sciences, Inc., priority 2015, published 2018)

How the values were obtained:
Type in all cases: cell-based, human
NK Cells = experiment: Immune cell activation in PBMC cultures, flow cytometry: NK cells; details: for NK Cells CD25 Fold / NK Cells CD69 Fold: 2 days, N = 6
Description: (§1) TLR8 is expressed on multiple immune cell subsets. To determine how treatment with a TLR8 modulating compound affects activation of distinct cell populations, PBMCs were purified from HIV-1 infected subjects on cART, as described in Example 121 (anonymized participant IDs 184, 185, 188, 189, 190, and 191). […] After incubation, PBMCs were harvested and stained with antibodies conjugated to specific fluorophores (BD Biosciences) to delineate immune cell subsets: CD4 T cells (CD3+CD4+CD8−), CD8 T cells (CD3+CD8+CD4−), NK cells (CD3−CD56+CD16+), monocytes (CD3−CD14+), B cells (CD3−CD19+), and peripheral dendritic cells (DCs), defined as positive for HLA-DR and negative for a panel of markers: CD3, CD14, CD16, CD19, CD20, CD56 (Lin-1 lineage panel, BD Biosciences).
(§2) Additional markers of activation, maturation, and effector function were included for cell subsets, as follows: CD4 and CD8 T cells (CD25, CD38, CD69, IFN-γ, granzyme B, perforin, TNF-α), NK cells (CD25, CD69, IFN-γ), monocytes (CD11c, CD16, CD80, CD86, CD163, TNF-α), B cells (CD40, CD69, CD80, CD86), and DC (CD11c, CD69, CD80, CD86, CD123, and CD163). Cells were stained for surface markers (CD3, CD4, CD8, CD11c, CD14, CD16, CD25, CD69, CD80, CD86, CD163), washed, treated with fixation and permeabilization buffer (eBioscience), and stained for intracellular markers (IFN-γ, granzyme B, perforin, TNF-α). Cells were evaluated by flow cytometry on a LSR Fortessa (BD Biosciences), and data was analyzed with FlowJo software (TreeStar).
(§3) Data are expressed as geometric mean percentage (%) and as geometric mean fold-activation (Fold) for each marker and for each PBMC subset obtained from 4 or 6 subjects, as indicated. Fold activation is calculated as a ratio of the % positive for each marker for each PBMC subset at the indicated concentration of the compound of Example 15 relative to % positive for DMSO treated samples. Fold activations that are 1.5 are in bold.

CD8+ T Cells = experiment: Immune cell activation in PBMC cultures, flow cytometry: CD8+ T cells; details: 2 days; for CD8+ T Cells CD25 Fold / CD8+ T Cells CD28 Fold / CD8+ T Cells CD38 Fold / CD8+ T Cells CD69 Fold / CD8+ T Cells CD25 % / CD8+ T Cells CD28 % / CD8+ T Cells CD69 %: N = 6
Description: as §1, §2, §3

DCs = experiment: Immune cell activation in PBMC cultures, flow cytometry: DCs; details: for DCs CD80 Fold / DCs CD69 Fold: 2 days, N = 4
Description: as §1, §2, §3

CCCC[C@H](CO)Nc1nc(N)nc2cccnc12 [Example 15]
NK Cells CD25 Fold (NK Cells; 10 nM vs DMSO): 0.4 fold
NK Cells CD69 Fold (NK Cells; 10 nM vs DMSO): 0.4 fold
NK Cells CD25 Fold (NK Cells; 100 nM vs DMSO): 1.6 fold
NK Cells CD69 Fold (NK Cells; 100 nM vs DMSO): 0.6 fold
NK Cells CD69 Fold (NK Cells; 1000 nM vs DMSO): 12.4 fold
NK Cells CD25 Fold (NK Cells; 3000 nM vs DMSO): 9.6 fold
NK Cells CD69 Fold (NK Cells; 3000 nM vs DMSO): 11.8 fold
Concentration of maximal activation of NK cells (NK Cells; increased expression of CD25 and CD69): 1000 nM
CD8+ T Cells CD25 Fold (CD8+ T Cells; 10 nM vs DMSO): 0.6 fold
CD8+ T Cells CD28 Fold (CD8+ T Cells; 10 nM vs DMSO): 0.9 fold
CD8+ T Cells CD38 Fold (CD8+ T Cells; 10 nM vs DMSO): 0.9 fold
CD8+ T Cells CD69 Fold (CD8+ T Cells; 10 nM vs DMSO): 0.8 fold
CD8+ T Cells CD25 % (CD8+ T Cells; 10 nM): 0.2%
CD8+ T Cells CD28 % (CD8+ T Cells; 10 nM): 0.1%
CD8+ T Cells CD69 % (CD8+ T Cells; 10 nM): 3.7%
CD8+ T Cells CD25 Fold (CD8+ T Cells; 100 nM vs DMSO): 1.0 fold
CD8+ T Cells CD28 Fold (CD8+ T Cells; 100 nM vs DMSO): 1.1 fold
CD8+ T Cells CD38 Fold (CD8+ T Cells; 100 nM vs DMSO): 1.0 fold
CD8+ T Cells CD69 Fold (CD8+ T Cells; 100 nM vs DMSO): 0.7 fold
CD8+ T Cells CD25 % (CD8+ T Cells; 100 nM): 0.3%
CD8+ T Cells CD28 % (CD8+ T Cells; 100 nM): 0.1%
CD8+ T Cells CD69 % (CD8+ T Cells; 100 nM): 3.4%
CD8+ T Cells CD25 Fold (CD8+ T Cells; 1000 nM vs DMSO): 2.2 fold
CD8+ T Cells CD28 Fold (CD8+ T Cells; 1000 nM vs DMSO): 4.4 fold
CD8+ T Cells CD38 Fold (CD8+ T Cells; 1000 nM vs DMSO): 2.0 fold
CD8+ T Cells CD69 Fold (CD8+ T Cells; 1000 nM vs DMSO): 2.2 fold
CD8+ T Cells CD25 % (CD8+ T Cells; 1000 nM): 0.7%
CD8+ T Cells CD28 % (CD8+ T Cells; 1000 nM): 0.4%
CD8+ T Cells CD25 Fold (CD8+ T Cells; 3000 nM vs DMSO): 3.0 fold
CD8+ T Cells CD28 Fold (CD8+ T Cells; 3000 nM vs DMSO): 4.7 fold
CD8+ T Cells CD38 Fold (CD8+ T Cells; 3000 nM vs DMSO): 2.0 fold
CD8+ T Cells CD69 Fold (CD8+ T Cells; 3000 nM vs DMSO): 2.5 fold
CD8+ T Cells CD25 % (CD8+ T Cells; 3000 nM): 0.9%
CD8+ T Cells CD28 % (CD8+ T Cells; 3000 nM): 0.5%
Perforin in CD8+ T cells (CD8+ T Cells; Example 15 treatment): did not increase
DCs CD80 Fold (DCs; 10 nM vs DMSO): 1.8 fold
DCs CD69 Fold (DCs; 100 nM vs DMSO): 0.4 fold
DCs CD80 Fold (DCs; 100 nM vs DMSO): 2.4 fold
DCs CD69 Fold (DCs; 1000 nM vs DMSO): 3.3 fold
DCs CD80 Fold (DCs; 1000 nM vs DMSO): 2.9 fold
DCs CD69 Fold (DCs; 3000 nM vs DMSO): 8.9 fold
DCs CD80 Fold (DCs; 3000 nM vs DMSO): 2.0 fold
Concentration of maximal activation of DCs (DCs; increased expression of CD69): 3000 nM
Concentration of maximal activation of DCs (DCs; increased expression of CD80): 1000 nM
